From patent US20100267561A1, “HERBICIDAL PYRIDAZINONE DERIVATIVES” (priority 2007, published 2010)

Legend:
Experiment in all cases: Test E pre-/postemergence plant response
Assay type in all cases: in vivo
Conditions in all cases: scale 0 to 100
[1] = system: quackgrass (Elytrigia repens)
Method in brief: (§1)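 Seeds were planted and treated preemergence with compound formulated in a non-phytotoxic solvent mixture containing surfactant; postemergence sprays in the same formulation went onto plants 2 to 18 cm tall (1- to 4-leaf stage). After 14 to 21 days in a greenhouse, injury versus untreated controls was rated visually, 0 (no effect) to 100 (complete control).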

[2] = system: johnsongrass (Sorghum halepense)
Method in brief: as §1

[3] = system: Italian ryegrass (Lolium multiflorum)
Method in brief: as §1

[4] = system: common mallow (Malva sylvestris)
Method in brief: as §1

[5] = system: southern (S.) sandbur (Cenchrus echinatus)
Method in brief: as §1

[6] = system: itchgrass (Rottboellia cochinchinensis)
Method in brief: as §1

[7] = system: surinam grass (Brachiaria decumbens)
Method in brief: as §1

[8] = system: common groundsel (Senecio vulgaris)
Method in brief: as §1

[9] = system: annual bluegrass (Poa annua)
Method in brief: as §1

[10] = system: purple nutsedge (Cyperus rotundus)
Method in brief: as §1

[11] = system: pitted morningglory (Ipomoea lacunosa)
Method in brief: as §1

[12] = system: green foxtail (Setaria viridis)
Method in brief: as §1

[13] = system: goosegrass (Eleusine indica)
Method in brief: as §1

[14] = system: guineagrass (Panicum maximum)
Method in brief: as §1

[15] = system: common purslane (Portulaca oleracea)
Method in brief: as §1

[16] = system: bermudagrass (Cynodon dactylon)
Method in brief: as §1

[17] = system: black mustard (Brassica nigra)
Method in brief: as §1

What does the source list for `CCCc1cc(-c2ccc(Cl)cc2)nn1-c1c(O)cnn(C)c1=O` [Compound 43]?
Plant response rating, Quackgrass ([1]; 16 g ai/ha, Preemergence): 70; Plant response rating, Quackgrass ([1]; 31 g ai/ha, Preemergence): 80; Plant response rating, Quackgrass ([1]; 62 g ai/ha, Preemergence): 95; Plant response rating, Quackgrass ([1]; Postemergence, 8 g ai/ha): 0; Plant response rating, Quackgrass ([1]; Postemergence, 16 g ai/ha): 0; Plant response rating, Quackgrass ([1]; Postemergence, 31 g ai/ha): 20; Plant response rating, Quackgrass ([1]; Postemergence, 62 g ai/ha): 75; Plant response rating, Johnsongrass ([2]; 16 g ai/ha, Preemergence): 0; Plant response rating, Johnsongrass ([2]; 31 g ai/ha, Preemergence): 50; Plant response rating, Johnsongrass ([2]; 62 g ai/ha, Preemergence): 60; Plant response rating, Johnsongrass ([2]; Postemergence, 8 g ai/ha): 15; Plant response rating, Johnsongrass ([2]; Postemergence, 16 g ai/ha): 25; Plant response rating, Johnsongrass ([2]; Postemergence, 31 g ai/ha): 65; Plant response rating, Ryegrass, Italian ([3]; 16 g ai/ha, Preemergence): 90; Plant response rating, Ryegrass, Italian ([3]; 31 g ai/ha, Preemergence): 90; Plant response rating, Ryegrass, Italian ([3]; 62 g ai/ha, Preemergence): 90; Plant response rating, Ryegrass, Italian ([3]; Postemergence, 8 g ai/ha): 50; Plant response rating, Ryegrass, Italian ([3]; Postemergence, 16 g ai/ha): 80; Plant response rating, Ryegrass, Italian ([3]; Postemergence, 31 g ai/ha): 100; Plant response rating, Ryegrass, Italian ([3]; Postemergence, 62 g ai/ha): 100; Plant response rating, Mallow ([4]; 16 g ai/ha, Preemergence): 0; Plant response rating, Mallow ([4]; 31 g ai/ha, Preemergence): 0; Plant response rating, Mallow ([4]; 62 g ai/ha, Preemergence): 0; Plant response rating, Mallow ([4]; Postemergence, 8 g ai/ha): 0; Plant response rating, Mallow ([4]; Postemergence, 16 g ai/ha): 0; Plant response rating, Mallow ([4]; Postemergence, 31 g ai/ha): 0; Plant response rating, Mallow ([4]; Postemergence, 62 g ai/ha): 0; Plant response rating, Sandbur, S. ([5]; 16 g ai/ha, Preemergence): 60; Plant response rating, Sandbur, S. ([5]; 31 g ai/ha, Preemergence): 75; Plant response rating, Sandbur, S. ([5]; 62 g ai/ha, Preemergence): 98; Plant response rating, Sandbur, S. ([5]; Postemergence, 8 g ai/ha): 80; Plant response rating, Sandbur, S. ([5]; Postemergence, 16 g ai/ha): 95; Plant response rating, Sandbur, S. ([5]; Postemergence, 31 g ai/ha): 98; Plant response rating, Sandbur, S. ([5]; Postemergence, 62 g ai/ha): 100; Plant response rating, Itchgrass ([6]; 16 g ai/ha, Preemergence): 35; Plant response rating, Itchgrass ([6]; 31 g ai/ha, Preemergence): 50; Plant response rating, Itchgrass ([6]; 62 g ai/ha, Preemergence): 85; Plant response rating, Itchgrass ([6]; Postemergence, 8 g ai/ha): 20; Plant response rating, Itchgrass ([6]; Postemergence, 31 g ai/ha): 20; Plant response rating, Itchgrass ([6]; Postemergence, 62 g ai/ha): 75; Plant response rating, Surinam Grass ([7]; 16 g ai/ha, Preemergence): 50; Plant response rating, Surinam Grass ([7]; 31 g ai/ha, Preemergence): 70; Plant response rating, Surinam Grass ([7]; 62 g ai/ha, Preemergence): 100; Plant response rating, Surinam Grass ([7]; Postemergence, 8 g ai/ha): 95; Plant response rating, Surinam Grass ([7]; Postemergence, 16 g ai/ha): 98; Plant response rating, Surinam Grass ([7]; Postemergence, 31 g ai/ha): 98; Plant response rating, Surinam Grass ([7]; Postemergence, 62 g ai/ha): 98; Plant response rating, Groundsel ([8]; 16 g ai/ha, Preemergence): 0; Plant response rating, Groundsel ([8]; 31 g ai/ha, Preemergence): 0; Plant response rating, Groundsel ([8]; 62 g ai/ha, Preemergence): 0; Plant response rating, Groundsel ([8]; Postemergence, 8 g ai/ha): 0; Plant response rating, Groundsel ([8]; Postemergence, 16 g ai/ha): 0; Plant response rating, Groundsel ([8]; Postemergence, 31 g ai/ha): 0; Plant response rating, Groundsel ([8]; Postemergence, 62 g ai/ha): 0; Plant response rating, Bluegrass ([9]; 16 g ai/ha, Preemergence): 0; Plant response rating, Bluegrass ([9]; 31 g ai/ha, Preemergence): 0; Plant response rating, Bluegrass ([9]; 62 g ai/ha, Preemergence): 0; Plant response rating, Bluegrass ([9]; Postemergence, 8 g ai/ha): 0; Plant response rating, Bluegrass ([9]; Postemergence, 16 g ai/ha): 0; Plant response rating, Bluegrass ([9]; Postemergence, 31 g ai/ha): 0; Plant response rating, Bluegrass ([9]; Postemergence, 62 g ai/ha): 0; Plant response rating, Nutsedge, Purple ([10]; 16 g ai/ha, Preemergence): 0; Plant response rating, Nutsedge, Purple ([10]; 31 g ai/ha, Preemergence): 0; Plant response rating, Nutsedge, Purple ([10]; 62 g ai/ha, Preemergence): 75; Plant response rating, Nutsedge, Purple ([10]; Postemergence, 8 g ai/ha): 0; Plant response rating, Nutsedge, Purple ([10]; Postemergence, 16 g ai/ha): 0; Plant response rating, Nutsedge, Purple ([10]; Postemergence, 31 g ai/ha): 0; Plant response rating, Nutsedge, Purple ([10]; Postemergence, 62 g ai/ha): 0; Plant response rating, Morningglory ([11]; 16 g ai/ha, Preemergence): 0; Plant response rating, Morningglory ([11]; 31 g ai/ha, Preemergence): 20; Plant response rating, Morningglory ([11]; 62 g ai/ha, Preemergence): 30; Plant response rating, Morningglory ([11]; Postemergence, 8 g ai/ha): 0; Plant response rating, Morningglory ([11]; Postemergence, 16 g ai/ha): 0; Plant response rating, Morningglory ([11]; Postemergence, 31 g ai/ha): 0; Plant response rating, Morningglory ([11]; Postemergence, 62 g ai/ha): 0; Plant response rating, Foxtail, Green ([12]; 16 g ai/ha, Preemergence): 25; Plant response rating, Foxtail, Green ([12]; 31 g ai/ha, Preemergence): 85; Plant response rating, Foxtail, Green ([12]; 62 g ai/ha, Preemergence): 100; Plant response rating, Foxtail, Green ([12]; Postemergence, 8 g ai/ha): 75; Plant response rating, Foxtail, Green ([12]; Postemergence, 16 g ai/ha): 80; Plant response rating, Foxtail, Green ([12]; Postemergence, 31 g ai/ha): 80; Plant response rating, Foxtail, Green ([12]; Postemergence, 62 g ai/ha): 98; Plant response rating, Goosegrass ([13]; 16 g ai/ha, Preemergence): 65; Plant response rating, Goosegrass ([13]; 31 g ai/ha, Preemergence): 95; Plant response rating, Goosegrass ([13]; 62 g ai/ha, Preemergence): 98; Plant response rating, Goosegrass ([13]; Postemergence, 8 g ai/ha): 20; Plant response rating, Goosegrass ([13]; Postemergence, 16 g ai/ha): 75; Plant response rating, Goosegrass ([13]; Postemergence, 31 g ai/ha): 75; Plant response rating, Goosegrass ([13]; Postemergence, 62 g ai/ha): 90; Plant response rating, Guineagrass ([14]; 16 g ai/ha, Preemergence): 95; Plant response rating, Guineagrass ([14]; 31 g ai/ha, Preemergence): 100; Plant response rating, Guineagrass ([14]; 62 g ai/ha, Preemergence): 100; Plant response rating, Guineagrass ([14]; Postemergence, 8 g ai/ha): 100; Plant response rating, Guineagrass ([14]; Postemergence, 16 g ai/ha): 100; Plant response rating, Guineagrass ([14]; Postemergence, 31 g ai/ha): 100; Plant response rating, Guineagrass ([14]; Postemergence, 62 g ai/ha): 100; Plant response rating, Purslane ([15]; 16 g ai/ha, Preemergence): 0; Plant response rating, Purslane ([15]; 31 g ai/ha, Preemergence): 0; Plant response rating, Purslane ([15]; 62 g ai/ha, Preemergence): 0; Plant response rating, Purslane ([15]; Postemergence, 8 g ai/ha): 0; Plant response rating, Purslane ([15]; Postemergence, 16 g ai/ha): 0; Plant response rating, Purslane ([15]; Postemergence, 62 g ai/ha): 0; Plant response rating, Bermudagrass ([16]; 16 g ai/ha, Preemergence): 30; Plant response rating, Bermudagrass ([16]; 31 g ai/ha, Preemergence): 70; Plant response rating, Bermudagrass ([16]; 62 g ai/ha, Preemergence): 85; Plant response rating, Bermudagrass ([16]; Postemergence, 8 g ai/ha): 0; Plant response rating, Bermudagrass ([16]; Postemergence, 16 g ai/ha): 20; Plant response rating, Bermudagrass ([16]; Postemergence, 31 g ai/ha): 20; Plant response rating, Bermudagrass ([16]; Postemergence, 62 g ai/ha): 20; Plant response rating, Mustard, Black ([17]; 16 g ai/ha, Preemergence): 0; Plant response rating, Mustard, Black ([17]; 31 g ai/ha, Preemergence): 0; Plant response rating, Mustard, Black ([17]; 62 g ai/ha, Preemergence): 0; Plant response rating, Mustard, Black ([17]; Postemergence, 8 g ai/ha): 0; Plant response rating, Mustard, Black ([17]; Postemergence, 16 g ai/ha): 0; Plant response rating, Mustard, Black ([17]; Postemergence, 31 g ai/ha): 0; Plant response rating, Mustard, Black ([17]; Postemergence, 62 g ai/ha): 0
